Reference: ChEMBL document CHEMBL1921698, “Identification of small-molecule inhibitors of Trypansoma cruzi replication” (Bioorg Med Chem Lett, 2011)

How the values were obtained:
Trypanosoma cruzi = test: Antitrypanosomal activity against trypomastigote form of Trypanosoma cruzi Tulahuen expressing beta-galactosidase infected in mouse NIH/3T3 cells assessed as inhibition of parasite replication after 4 days by betagalactosidase-based luminescence assay; format: functional, organism-based; settings: NIH3T3, 96 h
NIH3T3 [1] = test: Cytotoxicity against mouse NIH/3T3 cells; format: cell-based; settings: for IC50: Mus musculus, NIH3T3; for Activity: mouse, nih3t3
[2] = Selectivity ratio of IC50 for mouse NIH/3T3 cells to IC50 for trypomastigote form of Trypanosoma cruzi Tulahuen; format: ADME, cell-based; settings: read-out: Ratio IC50
[3] = Solubility of compound in phosphate buffered saline buffer; format: physicochemical
NIH3T3 [4] = test: Cytotoxicity against mouse NIH/3T3 cells up to 19.5 uM; format: cell-based
[5] = Chemical stability of the compound in phosphate buffered saline assessed as compound remaining after 48 hrs; format: physicochemical; settings: read-out: Stability

With `COc1ccc(CCN(C)C(=O)C2CCCN(Cc3ccc(F)cc3)C2)cc1OC` (centres undefined) as the compound, how does the IC50 (Trypanosoma cruzi) read?
Its IC50 is 4.33 µM.

What about the IC50 (NIH3T3 [1]) of the same compound?
Its IC50 is 64.7 µM.

And the selectivity ratio [2]?
The selectivity ratio was 14.9.

And the solubility [3]?
The solubility was greater than 100 µM.

What does the source list for `COc1cc2c(cc1OC)CN(C(=O)C1CCCN(Cc3ccccc3)C1)CC2` (centres undefined)?
IC50 (Trypanosoma cruzi): 0.763 µM; IC50 (NIH3T3 [1]): 52.7 µM; selectivity ratio [2]: 69.1; solubility [3]: > 100 µM

What does the source list for `CN(Cc1ccccc1)C(=O)C1CCCN(Cc2ccc([N+](=O)[O-])cc2)C1` (centres undefined)?
IC50 (Trypanosoma cruzi): 7.63 µM; IC50 (NIH3T3 [1]): 51 µM; selectivity ratio [2]: 6.68; solubility [3]: > 100 µM

Which IC50 (Trypanosoma cruzi) does the source give for `CN(Cc1ccccc1)C(=O)C1CCCN(Cc2ccc(Br)cc2)C1` (centres undefined) here?
The IC50 was 3.01 µM.

What about the IC50 (NIH3T3 [1]) of the same compound?
The IC50 was 74.3 µM.

And the selectivity ratio [2]?
The selectivity ratio was 24.6.

What about the solubility [3] of the same compound?
Its solubility is greater than 100 µM.

For `CCN(CC)C(=O)C1CCCN(Cc2cccc(Cl)c2)C1` (centres undefined), which IC50 (Trypanosoma cruzi) is on record?
The IC50 was 9.91 µM.

And the IC50 (NIH3T3 [1])?
The IC50 was 164 µM.

What about the selectivity ratio [2] of the same compound?
Its selectivity ratio is 16.6.

And the solubility [3]?
Its solubility is greater than 100 µM.

Which IC50 (Trypanosoma cruzi) does the source give for `CN(Cc1ccccc1)C(=O)C1CCCN(Cc2ccc(C(F)(F)F)cc2)C1` (centres undefined) here?
Its IC50 is 0.008 µM.

What about the IC50 (NIH3T3 [1]) of the same compound?
Its IC50 is 61.6 µM.

What about the selectivity ratio [2] of the same compound?
The selectivity ratio was greater than 1000.

What about the solubility [3] of the same compound?
Its solubility is greater than 100 µM.

With `COc1ccc(C(=O)C2CCCN(CCc3ccccc3)C2)cc1OC` (centres undefined) as the compound, how does the IC50 (Trypanosoma cruzi) read?
Its IC50 is 0.518 µM.

What about the IC50 (NIH3T3 [1]) of the same compound?
Its IC50 is 19.5 µM.

What about the selectivity ratio [2] of the same compound?
Its selectivity ratio is 37.7.

What about the solubility [3] of the same compound?
The solubility was greater than 200 µM.

Which IC50 (Trypanosoma cruzi) does the source give for `COc1ccccc1CN1CCCC(C(=O)N(C)Cc2ccccc2)C1` (centres undefined) here?
The IC50 was 10.8 µM.

What about the IC50 (NIH3T3 [1]) of the same compound?
The IC50 was 77.3 µM.

And the selectivity ratio [2]?
The selectivity ratio was 7.16.

What about the solubility [3] of the same compound?
Its solubility is greater than 100 µM.

What does the source list for `COc1ccc(CN2CCCC(C(=O)N3CCCC3)C2)c(OC)c1OC` (centres undefined)?
IC50 (Trypanosoma cruzi): 1.01 µM; Activity (NIH3T3 [1]): Non-toxic; solubility [3]: > 100 µM

For `CCn1ncc(CN2CCCC(C(=O)c3cccc(OC(C)C)c3)C2)c1C` (centres undefined), which IC50 (Trypanosoma cruzi) is on record?
Its IC50 is 0.056 µM.

And the Activity (NIH3T3 [1])?
Its Activity is “Non-toxic”.

And the solubility [3]?
The solubility was greater than 200 µM.

With `CCCn1cc(CN2CCCC(C(=O)c3cccc(C(F)(F)F)c3)C2)cn1` (centres undefined) as the compound, how does the IC50 (Trypanosoma cruzi) read?
Its IC50 is 0.25 µM.

And the solubility [3]?
Its solubility is greater than 200 µM.

With `Cn1cc(CN2CCCC(C(=O)c3ccc(C(C)(C)C)cc3)C2)cn1` (centres undefined) as the compound, how does the IC50 (Trypanosoma cruzi) read?
Its IC50 is 1.63 µM.

What about the solubility [3] of the same compound?
Its solubility is greater than 200 µM.

With `COc1ccc(C(=O)C2CCCN(CC3CCCCC3)C2)cc1OC` (centres undefined) as the compound, how does the IC50 (Trypanosoma cruzi) read?
Its IC50 is 1.57 µM.

What about the solubility [3] of the same compound?
The solubility was greater than 200 µM.

For `CN(Cc1ccccc1)C(=O)C1CCCN(Cc2ccccc2C(F)(F)F)C1` (centres undefined), which IC50 (Trypanosoma cruzi) is on record?
The IC50 was 15.9 µM.

And the IC50 (NIH3T3 [1])?
Its IC50 is 63.3 µM.

What about the selectivity ratio [2] of the same compound?
The selectivity ratio was 3.98.

What about the solubility [3] of the same compound?
The solubility was greater than 100 µM.

With `CN(Cc1ccccc1)C(=O)C1CCCN(Cc2cccc(Cl)c2)C1` (centres undefined) as the compound, how does the IC50 (Trypanosoma cruzi) read?
Its IC50 is 0.57 µM.

And the IC50 (NIH3T3 [1])?
Its IC50 is 70.3 µM.

What about the selectivity ratio [2] of the same compound?
The selectivity ratio was 123.

And the solubility [3]?
Its solubility is greater than 100 µM.

Which results are given for `COc1ccc(CCN(C)C(=O)C2CCCN(Cc3ccc(OC)c(OC)c3)C2)cc1OC` (centres undefined)?
IC50 (Trypanosoma cruzi): 0.109 µM; Activity (NIH3T3 [1]): Non-toxic; Activity (NIH3T3 [4]): Non-toxic; solubility [3]: > 500 µM; remaining at 48 h [5]: 84%

Which results are given for `COc1ccc(CCN(C)C(=O)C2CCCN(Cc3ccccc3)C2)cc1OC` (centres undefined)?
IC50 (Trypanosoma cruzi): 1.4 µM; IC50 (NIH3T3 [1]): 47 µM; selectivity ratio [2]: 33.6; solubility [3]: > 100 µM

For `CCCn1ncc(CN2CCCC(C(=O)c3cccc(OC(C)C)c3)C2)c1C` (centres undefined), which IC50 (Trypanosoma cruzi) is on record?
Its IC50 is 0.035 µM.

And the Activity (NIH3T3 [1])?
Its Activity is “Non-toxic”.

And the Activity (NIH3T3 [4])?
The Activity was “Non-toxic”.

And the solubility [3]?
Its solubility is greater than 500 µM.

Which results are given for `Cc1cc(C)n(CC(=O)N2CCCC(C(=O)c3cccc(OC(C)C)c3)C2)n1` (centres undefined)?
IC50 (Trypanosoma cruzi): 16.5 µM; solubility [3]: > 200 µM

Which IC50 (Trypanosoma cruzi) does the source give for `CC(C)Oc1cccc(C(=O)C2CCCN(Cc3cnn(C(C)C)c3)C2)c1` (centres undefined) here?
The IC50 was 0.054 µM.

And the Activity (NIH3T3 [1])?
Its Activity is “Non-toxic”.

What about the solubility [3] of the same compound?
Its solubility is greater than 200 µM.

With `COc1ccc(CN2CCCC(C(=O)N3CCc4ccccc4C3)C2)cc1OC` (centres undefined) as the compound, how does the IC50 (Trypanosoma cruzi) read?
Its IC50 is 3.54 µM.

And the IC50 (NIH3T3 [1])?
The IC50 was 41.7 µM.

What about the selectivity ratio [2] of the same compound?
Its selectivity ratio is 11.8.

What about the solubility [3] of the same compound?
Its solubility is greater than 100 µM.
